# Molecular target: T1, KRAS G12C 1-169, his-tagged protein, GDP-loaded (Homo sapiens, UniProt P01116, G12C)
# T1 construct: KRAS G12C 1-169, his-tagged protein, GDP-loaded; His tag
# Assay: Biochemical assay: covalent modification of KRAS G12C measured by mass spectrometry (RapidFire/TOF or Q-Exactive)
# Format: binding
# Conditions: Modification Activity; modification percentage from deconvoluted MS peak intensities; compound concentration and incubation time for Table 2 not stated
# Experimental: Test compounds are prepared as 10 mM stock solutions in DMSO (Fisher cat # BP-231-100). KRAS G12C 1-169, his-tagged protein, GDP-loaded is diluted to 2 μM or 0.5 μM in buffer (20 mM Hepes, 150 mM NaCl, 1 mM MgCl2). Compounds are tested for activity as follows:
# Compounds are diluted to 50× final test concentration in DMSO in 96-well storage plates. Compound stock solutions are vortexed before use and observed carefully for any sign of precipitation. Dilutions are as follow: • For 100 μM final compound concentration, compounds are diluted to 5000 μM (5 μL 10 mM compound stock+5 μL DMSO and mixed well by pipetting. • For 30 μM final compound concentration, compounds are diluted to 1500 μM (3 μL 10 mM compound stock+17 μL DMSO) and mixed well by pipetting. • For 10 μM final compound concentration, compounds are diluted to 500 μM (2 μL 10 mM compound stock+38 μL DMSO) and mixed well by pipetting. 49 μL of the stock protein solution is added to each well of a 96-well PCR plate (Fisher cat #1423027). 1 μl of the diluted 50× compounds are added to appropriate wells in the PCR plate using 12-channel pipettor. Reactions are mixed carefully and thoroughly by pipetting up/down with a 200 μL multi-channel pipettor. The plate is sealed well with aluminum plate seal, and stored in drawer at room temperature for 10 minutes, 30 minutes, 2 hours or 24 hours. 5 μL of 2% formic acid (Fisher cat # A117) in de-ionized H2O is then added to each well followed by mixing with a pipette. The plate is then resealed with aluminum seal and stored on dry ice until analyzed as described below.
# The above described assays are analyzed by mass spectrometry according to one of the following two procedures:
# The MS instrument is set to positive polarity, 2 GHz resolution, and low mass (1700) mode and allowed to equilibrate for 30 minutes. The instrument is then calibrated, switched to acquisition mode and the appropriate method loaded.
# After another 30 minute equilibration time, a blank batch (i.e., buffer) is run to ensure equipment is operating properly. The samples are thawed at 37° C. for 10 minutes, briefly centrifuged, and transfer to the bench top. Wells A1 and H12 are spiked with 1 μL 500 μM internal standard peptide, and the plates centrifuged at 2000×g for 5 minutes. The method is then run and masses of each individual well recorded.
# The masses (for which integration data is desired) for each well are pasted into the platemap and exported from the analysis. Masses for the internal standards are exported as well. The data at 50 ppm is extracted for the +19 charge state, and identity of well A1 is assigned using the internal standard spike and integrated. Peak data is exported as a TOF list and the above steps are repeated individually, for the +20, 21, 22, 23, 24, and 25 charge states.
# The masses and peak intensities of KRAS G12C protein species are measured using a Dionex RSLCnano system (Thermo Scientific) connected to a Q Exactive Plus mass spectrometer (Thermo Scientific).
# […] of sample is each loaded onto a Aeris™ 3.6 μm WIDEPORE C4 200 Å, LC Column 50×2.1 mm column maintained at 40° C. at a flow rate of 600 μL/min with […] (0.1% formic acid in acetonitrile). The liquid chromatography conditions are 20% solvent B for 1 minute, 20% to 60% solvent B for 1.5 minutes, 60% to 90% solvent for 0.5 minute, 90% solvent B for 0.2 minute, 90% to 20% solvent B for 0.2 minute, and then equilibrated for 1.6 minute before the following sample injection. The flow rate is maintained at 600 μL/min throughout the sample analysis.
# The mass spectrometer is operated in profile mode at a resolution of 17500, 5 microscans, using 50 msec max injection time and an AGC target of 1×10^6, and a full mass range from 800-1850 m/z is recorded. The HCD trapping gas is optimized for maximum sensitivity for intact proteins. […]
row,Compound,Binding %
1,"C=CC(=O)N1CCN(c2c(C#N)cnc3c(F)c(-c4c(C)ccc5cnn(C)c45)c(Cl)cc23)C[C@H]1C [Compound 24, 4-((R)-4-acryloyl-3-methylpiperazin-1-yl)-6-chloro-7-(1,6-dimethyl-1H-indazol-7-yl)-8-fluoroquinoline-3-carbonitrile]",+++ (+++ indicates binding activity greater than 85%)
2,"C=CC(=O)N1CCN(c2cnnc3cc(-c4c(C)ccc5[nH]nc(C)c45)c(Cl)cc23)CC1 [Compound 17, 1-(4-(6-chloro-7-(3,5-dimethyl-1H-indazol-4-yl)cinnolin-4-yl)piperazin-1-yl)prop-2-en-1-one]",+ (+ indicates binding activity greater than 0% and up to 50%)
3,"C=CC(=O)N1CCN(c2c(C#N)c(OCCCN(C)C)nc3c(F)c(-c4c(C)ccc5cnn(C)c45)c(Cl)cc23)CC1 [Compound 27, 4-(4-acryloylpiperazin-1-yl)-6-chloro-7-(1,6-dimethyl-1H-indazol-7-yl)-2-(3-(dimethylamino)pro-poxy)-8-fluoroquinoline-3-carbonitrile]",+++ (+++ indicates binding activity greater than 85%)
4,"C=CC(=O)N1[C@H](C)CN(c2ncnc3c(F)c(-c4c(C)ccc5cnn(C)c45)c(Cl)cc23)C[C@@H]1C (atropisomer, axis not shown) [Compound 10, 1-((2S,6R)-4-((R)-6-chloro-7-(1,6-dimethyl-1H-indazol-7-yl)-8-fluoroquinazolin-4-yl)-2,6-dimethylpiperazin-1-yl)prop-2-en-1-one]",++ (++ indicates binding activity from 50 to 85%)
5,"C=CC(=O)N1C[C@H](C)N(c2ncnc3c(F)c(-c4c(C)ccc5[nH]nc(N)c45)c(Cl)cc23)C[C@H]1C [Compound 6, 1-((2R,5S)-4-((S)-7-(3-amino-5-methyl-1H-indazol-4-yl)-6-chloro-8-fluoroquinazolin-4-yl)-2,5-dimethylpiperazin-1-yl)prop-2-en-1-one]",+ (+ indicates binding activity greater than 0% and up to 50%)
6,"C=CC(=O)N1CCN(c2c(C#N)cnc3c(F)c(-c4c(C)ccc5[nH]nc(C)c45)c(Cl)cc23)CC1 [Compound 12, 4-(4-acryloylpiperazin-1-yl)-6-chloro-7-(3,5-dimethyl-1H-indazol-4-yl)-8-fluoroquinoline-3-carbonitrile]",++ (++ indicates binding activity from 50 to 85%)
7,"C=CC(=O)N1CCN(c2cnnc3cc(-c4c(C)ccc5cnn(C)c45)c(Cl)cc23)CC1 [Compound 15, 1-(4-(6-chloro-7-(1,6-dimethyl-1H-indazol-7-yl)cinnolin-4-yl)piperazin-1-yl)prop-2-en-1-one]",+ (+ indicates binding activity greater than 0% and up to 50%)
8,"C=CC(=O)N1C[C@H](C)N(c2ncnc3c(F)c(-c4c(C)ccc5cnn(C)c45)c(Cl)cc23)C[C@H]1C [Compound 7, 1-((2R,5S)-4-((S)-6-chloro-7-(1,6-dimethyl-1H-indazol-7-yl)-8-fluoroquinazolin-4-yl)-2,5-dimethylpiperazin-1-yl)prop-2-en-1-one]",+ (+ indicates binding activity greater than 0% and up to 50%)
9,"C=CC(=O)N1CCN(c2cnnc3cc(-c4c(C)ccc5cnn(C6CC6)c45)c(Cl)cc23)CC1 [Compound 16, 1-(4-(6-chloro-7-(1-cyclopropyl-6-methyl-1H-indazol-7-yl)cinnolin-4-yl)piperazin-1-yl)prop-2-en-1-one]",+ (+ indicates binding activity greater than 0% and up to 50%)
10,"C=CC(=O)N1CCN(c2cnnc3cc(-c4c(C)ccc5[nH]nc(C6CC6)c45)c(Cl)cc23)CC1 [Compound 18, 1-(4-(6-chloro-7-(3-cyclopropyl-5-methyl-1H-indazol-4-yl)cinnolin-4-yl)piperazin-1-yl)prop-2-en-1-one]",+ (+ indicates binding activity greater than 0% and up to 50%)
11,"C=CC(=O)N1CCN(c2c(C#N)cnc3c(F)c(-c4c(C)ccc5cnn(C6CC6)c45)c(Cl)cc23)C[C@H]1C [Compound 26, 4-((R)-4-acryloyl-3-methylpiperazin-1-yl)-6-chloro-7-(1-cyclopropyl-6-methyl-1H-indazol-7-yl)-8-fluoroquinoline-3-carbonitrile]",+++ (+++ indicates binding activity greater than 85%)
12,"C=CC(=O)N1[C@H](C)CN(c2ncnc3c(F)c(-c4c(C)ccc5cnn(C)c45)c(Cl)cc23)C[C@@H]1C (atropisomer, axis not shown) [Compound 9, 1-((2S,6R)-4-((S)-6-chloro-7-(1,6-dimethyl-1H-indazol-7-yl)-8-fluoroquinazolin-4-yl)-2,6-dimethylpiperazin-1-yl)prop-2-en-1-one]",+ (+ indicates binding activity greater than 0% and up to 50%)
13,"C=CC(=O)N1C[C@H](C)N(c2ncnc3c(F)c(-c4c(C)ccc5cnn(C)c45)c(Cl)cc23)C[C@H]1C (atropisomer, axis not shown) [Compound 8, 1-((2R,5S)-4-((R)-6-chloro-7-(1,6-dimethyl-1H-indazol-7-yl)-8-fluoroquinazolin-4-yl)-2,5-dimethylpiperazin-1-yl)prop-2-en-1-one]",+++ (+++ indicates binding activity greater than 85%)
14,"C=CC(=O)N1C[C@H](C)N(c2c(C#N)cnc3c(F)c(-c4c(C)ccc5cnn(C)c45)c(Cl)cc23)C[C@H]1C [Compound 19, 4-((2S,5R)-4-acryloyl-2,5-dimethylpiperazin-1-yl)-6-chloro-7-(1,6-dimethyl-1H-indazol-7-yl)-8-fluoroquinoline-3-carbonitrile]",+ (+ indicates binding activity greater than 0% and up to 50%)
15,"C=CC(=O)N1C[C@H](C)N(c2ncnc3c(F)c(-c4c(C)ccc5[nH]nc(N)c45)c(Cl)cc23)C[C@H]1C [Compound 5, 1-((2R,5S)-4-((R)-7-(3-amino-5-methyl-1H-indazol-4-yl)-6-chloro-8-fluoroquinazolin-4-yl)-2,5-dimethylpiperazin-1-yl)prop-2-en-1-one]",++ (++ indicates binding activity from 50 to 85%)
16,"C=CC(=O)N1C[C@H](C)N(c2c(C#N)cnc3c(F)c(-c4c(C)ccc5cnn(C6CC6)c45)c(Cl)cc23)C[C@H]1C [Compound 20, 4-((2S,5R)-4-acryloyl-2,5-dimethylpiperazin-1-yl)-6-chloro-7-(1-cyclopropyl-6-methyl-1H-indazol-7-yl)-8-fluoroquinoline-3-carbonitrile]",+ (+ indicates binding activity greater than 0% and up to 50%)
17,"C=CC(=O)N1CCN(c2ncnc3c(F)c(-c4c(C)ccc5[nH]nc(C)c45)c(Cl)cc23)CC1CC#N (stereo not shown) [Compound 31, 2-(1-acryloyl-4-(6-chloro-7-(3,5-dimethyl-1H-indazol-4-yl)-8-fluoroquinazolin-4-yl)piperazin-2-yl)acetonitrile]",+++ (+++ indicates binding activity greater than 85%)
18,"C=CC(=O)N1CCN(c2c(C#N)cnc3c(F)c(-c4c(C)ccc5[nH]nc(C)c45)c(Cl)cc23)CC1CC#N (stereo not shown) [Compound 30, 4-(4-acryloyl-3-(cyanomethyl)piperazin-1-yl)-6-chloro-7-(3,5-dimethyl-1H-indazol-4-yl)-8-fluoroquinoline-3-carbonitrile]",+++ (+++ indicates binding activity greater than 85%)
19,"C=CC(=O)N1CCN(c2cc(C(F)(F)F)nc3c(F)c(-c4c(C)ccc5cnn(C)c45)c(Cl)cc23)CC1 [Compound 23, 1-(4-(6-chlroo-7-(1,6-dimethyl-1H-indazol-7-yl)-8-fluoro-2-(trifluoromethyl)quino-lin-4-yl)piperazin-1-yl)prop-2-en-1-one]",+ (+ indicates binding activity greater than 0% and up to 50%)

# Source: US10736897B2, “Compounds and methods of use thereof for treatment of cancer” (Araxes Pharma LLC, priority 2017, dated 2020)
